From patent US20130096107A1, “USE OF AMINODIHYDROTHIAZINES FOR THE TREATMENT OR PREVENTION OF DIABETES” (Hoffmann-La Roche Inc., priority 2009, published 2013)
“Also recorded” adds a separate entry of the source.

How the values were obtained:
[1] = system: BACE2 (Tmem27 cleavage) in isolated human pancreatic islets; conditions: 200 nM, 72 h, islets from two human donors
Experimental: Freshly isolated human islets from two different donors (male, 51 years, BMI: 27.5 kg/m2; […], BMI: 22.2 kg/m2; circa 3000 islets per donor) were obtained from Dr. D. Bosco (Cell Isolation and Transplantation Center, Department of Surgery, Geneva, Switzerland) and maintained in CMRL-1066 (Invitrogen) at 5.6 mmol/l glucose supplemented with 10% FCS, 100 U/ml penicillin, 100 μg/ml streptomycin and 100 μg/ml gentamycin (Sigma) for 2 days before experiments. The present investigation was approved by the institutional ethics committee. […] Islets were collected by centrifugation and total proteins were extracted using CELYA lysis buffer CLB1 (Cat*9000, Zeptosens) following the manufacturer's protocol.
Total islet proteins (10 μg) were fractionated by NuPAGE 4-12% Bis-TrisGel (Cat*NP0321Box, Invitrogen) and transferred to nitrocellulose using iBlot system (Cat*IB3010-01, Invitrogen).

[2] = system: Zucker Diabetic Fatty (ZDF) rats; assay: Oral glucose tolerance test (oGTT) after chronic treatment of ZDF rats; format: in vivo, rat
Experimental: This study was conducted with male ZDF rats [ZDF/gmiCrl fa/fa] and lean rats [ZDF/gmiCrl fa/+] (Charles River Laboratories, Sulzfeld, Germany). The ZDF rats are a commonly used model of human type 2 diabetes characterized by insulin resistance, β-cell defects and hyperglycemia. Onset of diabetes in males is at the age of 8 to 10 weeks when fed a diabetogenic diet. All rats (ZDF and Lean rats) with an age of 6 weeks at the beginning of the experiment are fed a special diet (“PURINA PMI 5008”, ZDF_diet=Ssniff R/M−H) and housed 1 per cage (type 3). Ambient temperature is approximately 21° C. and relative humidity 55-65%. A 12 hours light-dark cycle is maintained in the rooms with all tests being performed during the light phase. Access to food and tap water is ad libitum.
(§1) Body weight and food intake were monitored daily. Blood glucose was measured weekly in all rats. After 3 weeks of treatment an oGTT was performed on 6 overnight fasted rats per groups. At about week 4 and after anesthesia, 2 to 3 ZDF rats per day and per group underwent pancreas surgery and in-situ pancreas perfusion with low/high glucose conditions. 120 eluted fractions per rat were collected for glucose and insulin quantification.
An oGTT was conducted on day 18 of treatment. After on overnight fast of approximately 16 h post treatment, rats were given a glucose load of 2 g/kg by gavage. Blood samples were collected immediately prior to glucose challenge (0 min) and +10, +30, +60 and +120 min after glucose challenge and blood glucose and other plasma parameters were determined.
Blood glucose was measured with a blood glucose monitoring system (Accu-Chek Aviva, Roche Diagnostics GmbH, Rotkreuz, Switzerland). Insulin was measured by ELISA, using the Mercodia Rat Insulin ELISA (Mercodia AB, Uppsala, Sweden).
Data were analyzed using the software SAS/JMP for Windows (version 6.0.0, SAS Institute Inc., Cary, N.C.). Data were expressed as mean±SEM (standard error of the mean). The number of rats was 6 per group. Comparison was made versus Vehicle, using Analysis of Variance ANOVA followed by post hoc Dunnett's test.

pancreas of ZDF rats = assay: Assessment of β-cell function by in situ pancreas perfusion (glucose-stimulated insulin secretion); format: in vivo, rat
Experimental: as §1
Rats were anesthetized (Temgesic (0.1 ml/100 g) first, then anesthetic cocktail: Ketamine (77 mg/kg), Xylazine (11 mg/kg), i.p. injection, volume 2 ml/kg). Pancreas was surgically isolated from other connecting organs and from nerves and veins and artery afferences and efferences, keeping access to abdominal aorta and portal vein which are both cannulated. Once surgery was done, rats were placed into a temperature controlled box (37° C.) and pancreata were connected to infusion pumps via abdominal aorta.
The glucose-stimulated insulin secretion (GSIS) was obtained by perfusing pancreata with Krebs-Ringer buffer containing low/high glucose concentration as described into protocol designed in FIG. 7. Basically, pancreata were first perfused with freshly prepared Krebs-Ringer solution (5 ml/min) containing low glucose concentration (2.8 mM) for about 30 minutes, stabilizing basal insulin secretion. Then, the first stimulation with high glucose concentration solution (16.7 mM) was given to sensitize the pancreata, leading to modest phase 1 and phase 2 insulin secretion.
Pancreas elution fractions were collected in 96-well plates (via a catheter introduced into the portal vein) at regular time intervals and immediately cooled down to 4° C. and subsequently stored at −20° C. until analyzed. At least, 120 eluted fractions per rat were collected for measurement of glucose and insulin levels.

In the case of `C[C@@]1(c2cc(NC(=O)c3ccc(Cl)cn3)ccc2F)CCSC(N)=N1` (single isomer, unassigned) [Example 1], the “full-length TMEM27 (immunoblot)” value [1] is reported as “stabilized the full length of TMEM27; also recorded: preservation of full-length TMEM 27”, the “Insulin AUC (0-120 minutes) during oGTT” value ([2]; 8.5 week old ZDF rats treated 17 days, 0.2, 5, 30 mg/kg p.o.) is reported as “dose-dependent increase in insulin levels without reaching significance” and the fasting insulin levels ([2]; 8.5 week old ZDF rats treated 17 days, Example 1 p.o., Liraglutide 0.4 mg/kg s.c.) is reported as “did not change fasting insulin levels compared to vehicle”. The “insulin levels during oGTT (post glucose challenge)” value ([2]; 8.5 week old ZDF rats treated 17 days, glucose 2 g/kg, Example 1 0.2, 5, 30 mg/kg p.o., Liraglutide 0.4 mg/kg s.c.) was “increased insulin levels (at peak and up to 60 minutes post glucose challenge); also recorded: dose-dependent increase in insulin levels secreted during oGTT”, the “fasting blood glucose (FBG) after overnight fasting” value ([2]; 8.5 week old ZDF rats, Example 1 0.2-5-30 mg/kg p.o., Liraglutide 0.4 mg/kg s.c., 17 days) was “trend to reduce fasting blood glucose after overnight fasting conditions (FBG) without reaching significance” and the “efficacy in oGTT compared with Liraglutide” value ([2]; Example 1 30 mg/kg p.o. versus Liraglutide 0.4 mg/kg s.c., chronic treatment) was “close to that induced by chronic treatment with Liraglutide”. The post-challenged glucose levels ([2]; ZDF rats after 17 days of oral treatment (summary)) was “reduced post-challenged glucose levels”, the “improvement of glucose tolerance (blood glucose during oGTT)” value ([2]; ZDF rats, 30 mg/kg p.o. daily for 17 days, versus vehicle) was “reached significance at 30′, 60′ and 120′ post glucose challenge” and the “glucose area under the curve (AUC 0-120 minutes) during oGTT” value ([2]; ZDF rats, 0.2, 5, 30 mg/kg p.o. daily for 17 days, oGTT day 18, versus vehicle) was “dose-dependently reduced; also recorded: dose dependent reduction of glucose AUC reaching significant values at 30 mg/kg”. For the same compound, the “AUC off-response of insulin secretion (perfused pancreas)” value (pancreas of ZDF rats; 30 mg/kg, 3 to 4 weeks of treatment, after high glucose 16.7 mM, versus vehicle) was “reduced”, the “basal insulin secretion (perfused pancreas)” value (pancreas of ZDF rats; 30 mg/kg, 3 to 4 weeks of treatment, low glucose 2.8 mM, versus vehicle) was “reduced” and the “insulin secretion profile (Phase 1/Phase 2)” value (pancreas of ZDF rats; ZDF rats, chronic treatment, in situ pancreas perfusion) was “normalized the insulin secretion profile (Phase 1/Phase 2)”.
